Laboratory results from paper PMC11931052, “Efficacy of dispirotripiperazine PDSTP in a golden Syrian hamster model of SARS-CoV-2 infection” (Frontiers in Microbiology, 2025).

Test system: SARS-CoV-2 BA.4/5 variant
Type: cell-based
Conditions: Calu-3 cells; PDSTP 20 and 4 μM; plaque assay

## Cc1nc(N2CC[N+]3(CC2)CC[N+]2(CCNCC2)CC3)c([N+](=O)[O-])c(N2CC[N+]3(CC2)CC[N+]2(CCNCC2)CC3)n1.Cl.Cl.O.O.O.O.O.O.O.O.O.[Cl-].[Cl-].[Cl-].[Cl-] [PDSTP, 3,3′-(2-methyl-5-nitropyrimidine-4,6-diyl)bis-3,12-diaza-6,9-diazonia-dispiro[5.2.5.2]hexadecane tetrachloride dihydrochloride nonahydrate]
  Effect on viral titers, BA.4/5 variant: strongly reduce viral titers
